The test system of one data set is red blood cells. The experiment in a line: Hemolysis. Type of data set: cell-based, human. The settings on record: at 50 μg/mL. As for the experimental part: Fresh heparinized human blood was washed three times by centrifugation at 1,200 g for 10 min in 100 mM PBS, pH 7.4. A 10% red-blood cell (RBC) suspension was prepared in PBS. Antibiotic 2 at 0.5, 5, and 50 μg/mL was added to aliquots of the 10% RBC suspension and incubated at 37° C. A positive control of 0.2% Triton was used. Samples were centrifuged at 1,200 g for 10 min and the supernatant measured for absorbance at 541 nm.

The next data set concerns the target T1, PBP2a allosteric site (Staphylococcus aureus, UniProt Q53707).
T1 construct: made in house
In words: Intrinsic fluorescence quenching of oxacillin-acylated PBP2a. Type of data set: binding, S. aureus. As for the experimental part:
FIG. 11. Binding of quinazolinone 2 to PBP2a allosteric site. […] (a) The change in the maximum fluorescence intensity was calculated as the difference compared to the intensity in the absence of compound. Any dilution effect was subtracted out using a buffer titration control. […] A nonlinear regression was used to fit the data, with an R^2 of 0.9997. (b) Emission scans of PBP2a intrinsic fluorescence with excitation at 280 nm. Antibiotic 2 was titrated in to give the final concentrations shown and 3 scans (1 min cycles) were averaged for each titration.
Therefore, we have evidence for binding of antibiotic 2 to the allosteric site (X-ray) and to the active site (kinetic assays for competitive inhibition and X-ray altered conformations for the active-site residues) of PBP2a). Binding of antibiotic 2 at the allosteric site induces conformational changes at the active site (FIG. 7B). All of these movements serve to double the area and the volume of the active site.
Therefore, we have evidence for binding of the antibiotic 2 to the allosteric site (X-ray) and to the active site (kinetic assays for competitive inhibition and X-ray altered conformations for the active-site residues) of PBP2a. Binding of antibiotic 2 at the allosteric site induces conformational changes at the active site (FIG. 7b). All of these movements serve to double the area and volume of the active site.

The subject of the next data set is S. aureus NRS123. In words: MIC, broth microdilution, S. aureus NRS123. Type of data set: cell-based. The settings on record: Staphylococcus aureus. As for the experimental part:
(§1) MICs were evaluated following the CLSI microdilution method in BBL™ Mueller-Hinton II broth (Wikler et al., Clinical Laboratory Standards Institute Document M7-A7, 29 (2009)). Briefly, two-fold serial dilutions of compound were prepared in triplicate in 96-well plates and inoculated with 5×10^5 cfu/mL of the bacterial suspension. Plates were incubated at 37° C. for 16-20 hours.
(In general: Dilution methods test growth across graded concentrations, often in twofold steps.)

Data set [1] in a line: Metabolic stability in rat S9. Type of data set: in vitro ADME. The settings on record: rat S9, 2 μM. As for the experimental part: (§2) Aliquots were taken at 0, 5, 10, 20, 30, 40, and 60 min, and mixed with two volumes of acetonitrile containing internal standard. The precipitated protein was centrifuged at 20,000 g for 15 min, and the supernatant was analyzed by reversed-phase UPLC.

A further data set in a line: Plasma stability. Type of data set: in vitro ADME. The settings on record: mouse, 37° C. As for the experimental part: Compound 2 (20 μM) was incubated in blank mouse plasma at 37° C. and aliquots were taken at specific time points and quenched with two volumes of acetonitrile containing internal standard. Samples were centrifuged and analyzed by reverse-phase UPLC.

The subject of data set [2] is S. aureus ATCC 29213 (MSSA). In words: MIC, CLSI broth microdilution, S. aureus ATCC 29213. Type of data set: cell-based, Staphylococcus aureus. As for the experimental part: as §1
The next data set has as its system S. aureus NRS120. The experiment in a line: MIC, CLSI broth microdilution, S. aureus NRS120. Type of data set: cell-based, Staphylococcus aureus. As for the experimental part: as §1
Data set [3] can be described thus: Metabolic stability in human S9. Type of data set: in vitro ADME. The settings on record: human S9, 2 μM. As for the experimental part: as §2
The subject of data set [4] is E. coli S30 extract system. In words: In vitro translation assay (E. coli S30 extract, β-galactosidase). The settings on record: up to 64 μg/mL. Type of data set: biochemical. An excerpt: For in vitro translation, the E. coli S30 Extract System for Circular DNA was used to set up the reactions using plasmid pCP19 containing the lacZ gene for β-galactosidase. Reaction mixtures were supplemented with two-fold dilutions of antibiotic 2 and the β-Galactosidase Enzyme Assay System with Reporter Lysis Buffer was used to quantify the amount of β-galactosidase translated by measuring absorbance at 420 nm. For in vitro transcription, a TranscriptAid T7 High Yield Transcription kit was used with a pET24a/dacB DNA construct under the T7 promoter. The purified plasmid was linearized using the restriction endonuclease XhoI and then purified according to the manufacturer's instructions. A series of samples were prepared and supplemented with two-fold dilutions of antibiotic 2. Samples were analyzed by running on a denaturing 1% formaldehyde agarose gel and stained with ethidium bromide to visualize RNA. Intensities of the bands were quantified and compared to the control to determine the amount of transcription occurring in the presence of 2.

Another data set has as its system S. aureus NRS119. In words: MIC, CLSI broth microdilution, S. aureus NRS119. Type of data set: cell-based, Staphylococcus aureus. On the procedure: as §1
In data set [5] the test system is S. epidermidis ATCC 35547. The experiment in a line: MIC, CLSI broth microdilution, S. epidermidis ATCC 35547. Type of data set: cell-based. As for the experimental part:
as §1

Data set [6] is described as follows: Plasma protein binding, rapid equilibrium dialysis, human. Type of data set: in vitro ADME. The settings on record: humans, 10 μM, 6 h dialysis. As for the experimental part: Aliquots from both chambers were quenched with 1:2 v/v acetonitrile containing an internal standard. The samples were concentrated to dryness on a miVac concentrator and the residue resuspended in 50:50 acetonitrile/water. Samples were analyzed by reverse-phase ultraperformance liquid chromatography (UPLC) with UV/Vis detection. Plasma protein binding of quinazolinone 2 was 98.0±0.04% in mice and 96.5±0.70% in humans.
Background: Equilibrium dialysis compares concentrations on both sides of a semipermeable membrane.

Molecules are shown by their SMILES. “Also recorded” adds a separate entry of the source. Read-outs that look alike come from different tables or passages of the source.

T1 sequence (Q53707 entry or part of it): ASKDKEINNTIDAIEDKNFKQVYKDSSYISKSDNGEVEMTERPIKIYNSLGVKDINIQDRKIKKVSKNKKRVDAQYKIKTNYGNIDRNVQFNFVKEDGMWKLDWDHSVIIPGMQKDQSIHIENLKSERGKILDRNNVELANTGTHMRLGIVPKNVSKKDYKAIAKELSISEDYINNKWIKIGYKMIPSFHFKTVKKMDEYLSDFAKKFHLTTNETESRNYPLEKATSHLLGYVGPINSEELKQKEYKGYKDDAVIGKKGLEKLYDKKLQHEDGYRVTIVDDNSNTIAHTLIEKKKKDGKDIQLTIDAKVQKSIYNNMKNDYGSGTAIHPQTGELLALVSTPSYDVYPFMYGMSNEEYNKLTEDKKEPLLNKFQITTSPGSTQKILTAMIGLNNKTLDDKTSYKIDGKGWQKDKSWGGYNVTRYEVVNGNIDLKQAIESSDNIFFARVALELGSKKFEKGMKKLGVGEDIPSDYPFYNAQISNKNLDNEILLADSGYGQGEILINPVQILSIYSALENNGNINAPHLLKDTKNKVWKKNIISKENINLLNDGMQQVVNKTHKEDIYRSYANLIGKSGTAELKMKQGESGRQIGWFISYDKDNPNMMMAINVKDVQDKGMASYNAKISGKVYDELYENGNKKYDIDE

For the compound `N#Cc1ccc(/C=C/c2nc3ccccc3c(=O)n2-c2cccc(C(=O)O)c2)cc1.[Na]` [Compound 2, Sodium (E)-3-(3-carboxyphenyl)-2-(4-cyanostyryl)quinazolin-4(3H)-one], the “Hemolysis of red blood cells” value in the data set on red blood cells was under 1%. Binding on PBP2a allosteric site was characterised by a dissociation constant (Kd) of 16.3 µM. For the same compound, the minimal inhibitory concentration (MIC) (usually the least concentration at which growth counts as inhibited) was found to be 2 µg/mL with S. aureus NRS123 (NRS123); 4 µg/mL in the data set on S. aureus NRS123 (NRS123, read-out: MIC NRS123); 2 µg/mL in [2] (Staphylococcus aureus); 8 µg/mL against S. aureus NRS120 (Staphylococcus aureus, NRS120); 8 µg/mL against S. aureus NRS119 (Staphylococcus aureus, NRS119); 1 µg/mL in [5] (Staphylococcus epidermidis, ATCC35547). Also, the “Compound remaining after 1-h incubation” value in data set [1] and in [3] was 100% throughout. For the same compound, the half-life (usually how long it takes for the measured level to halve) at 20 μM in “Plasma stability” is 141 h. In addition, the In vitro AB activity (MIC) in [2] (Table 2.1, S. aureus ATCC 29213) was determined as 2 µg/mL; with S. aureus NRS120 (Table 2.1, S. aureus NRS120), 8 µg/mL; with S. aureus NRS119 (Table 2.1, S. aureus NRS119), 8 µg/mL; in data set [5] (Table 2.1, S. epidermidis ATCC 35547) it was 1 µg/mL. The “Increase of MIC in the presence of BSA” value in data set [2] (with BSA vs without) worked out at 4 fold. Besides, the “Inhibition of in vitro translation” value in [4] was “did not show any inhibition; also recorded: No inhibition”. The Plasma protein binding in data set [6] is recorded as 96.5±0.70%.
